Source: patent US10206937B2, “Boronic acid derivatives and therapeutic uses thereof” (Qpex Biopharma, Inc., priority 2014, dated 2019)

System: strains of Enterobacteriaceae producing various carbapenemases (class A, D and B; 104 strains)
Test: Antibiotics potentiation by Compound 27 (MIC; meropenem, doripenem, ertapenem, cefepime)
Type: cell-based
Settings: + 27 = with Compound 27 at fixed 4 μg/ml

Question: Which results are given for `C[C@@H](O)[C@H]1C(=O)N2C(C(=O)O)=C(S[C@@H]3CN[C@H](C(=O)Nc4cccc(C(=O)O)c4)C3)[C@H](C)[C@H]12` [E]?
Answer: MIC (strain KP1081 Klebsiella pneumoniae (NDM-1, TEM-1, SHV-11, CMY-6, CTX-M-15)): Z (MIC of greater than 10 μg/mL); MIC (strain KP1082 Klebsiella pneumoniae (KPC-2, SHV-1)): Z (MIC of greater than 10 μg/mL); MIC (strain KP1083 Klebsiella pneumoniae (KPC-3, SHV-1, TEM-1)): Z (MIC of greater than 10 μg/mL); MIC (strain KP1084 Klebsiella pneumoniae (KPC-3, SHV-11, TEM-1)): Z (MIC of greater than 10 μg/mL); MIC (strain KP1086 Klebsiella pneumoniae (OXA-48, CTX-M-15, TEM, SHV)): Z (MIC of greater than 10 μg/mL); MIC (strain KP1087 Klebsiella pneumoniae (KPC-2, CTX-M-15, SHV-11, TEM-1)): Z (MIC of greater than 10 μg/mL); MIC (strain KP1088 Klebsiella pneumoniae (KPC-3, SHV-11, TEM-1)): Z (MIC of greater than 10 μg/mL); MIC (strain KP1089 Klebsiella pneumonias (OXA-181, CTX-M-15, TEM, SHV)): Z (MIC of greater than 10 μg/mL); MIC (strain KP1095 Klebsiella pneumoniae (KPC-2 TEM-1 SHV-1)): Y (MIC of 1 μg/mL to 10 μg/mL); MIC (strain KP1096 Klebsiella pneumoniae (KPC-2 TEM-181 SHV-11)): Z (MIC of greater than 10 μg/mL); MIC (strain KP1097 Klebsiella pneumonias (IMP-1)): Z (MIC of greater than 10 μg/mL); MIC (strain KP1098 Klebsiella pneumoniae (IMP-26)): Z (MIC of greater than 10 μg/mL); MIC (strain KP1104 Klebsiella pneumoniae (KPC TEM)): Z (MIC of greater than 10 μg/mL); MIC (strain KP1105 Klebsiella pneumoniae (KPC TEM SHV)): Z (MIC of greater than 10 μg/mL); MIC (strain KP1159 Klebsiella pneumoniae (SHV-1(2b); CTX-M-15; IMP-4)): Z (MIC of greater than 10 μg/mL); MIC (strain KP1160 Klebsiella pneumoniae (SHV-28(2be); CTX-M-15; IMP-26)): Z (MIC of greater than 10 μg/mL); MIC (strain KP1161 Klebsiella pneumoniae (NDM-1)): Z (MIC of greater than 10 μg/mL); MIC (strain KP1164 Klebsiella pneumoniae (SHV-12(2be); VIM-1)): Z (MIC of greater than 10 μg/mL); MIC (strain KP1165 Klebsiella pneumoniae (SHV-11(2b); CTX-M-15; VIM-27)): Z (MIC of greater than 10 μg/mL); MIC (strain KP1166 Klebsiella pneumoniae (SHV-5(2be); VIM-26)): Z (MIC of greater than 10 μg/mL); MIC (strain KP1167 Klebsiella pneumoniae (SHV-12(2be); VIM-1)): Y (MIC of 1 μg/mL to 10 μg/mL); MIC (strain KP1169 Klebsiella pneumoniae (SHV-11(2b); VIM-1)): Y (MIC of 1 μg/mL to 10 μg/mL); MIC (strain KP1170 Klebsiella pneumoniae (SHV-11(2b); CTX-M-15; NDM-1)): Z (MIC of greater than 10 μg/mL); MIC (strain KP1172 Klebsiella pneumoniae (SHV-31(2be); DHA-1; VIM-1)): Y (MIC of 1 μg/mL to 10 μg/mL); MIC (strain KP1173 Klebsiella pneumoniae (TEM-33(2br); CTX-M-15; IMP-1)): Y (MIC of 1 μg/mL to 10 μg/mL); MIC (strain KP1174 Klebsiella pneumoniae (CTX-M-14; IMP-1)): Z (MIC of greater than 10 μg/mL); MIC (strain KP1175 Klebsiella pneumoniae (SHV-OSBL(2b); VIM-1)): Z (MIC of greater than 10 μg/mL); MIC (strain KP1177 Klebsiella pneumoniae (SHV-OSBL(2b), TEM-OSBL(2b); CTX-M-15; NDM-1)): Z (MIC of greater than 10 μg/mL); MIC (strain KP1178 Klebsiella pneumoniae (SHV-OSBL(2b;) TEM-OSBL(2b); CTX-M-15; NDM-1)): Z (MIC of greater than 10 μg/mL); MIC (strain KP1179 Klebsiella pneumoniae (SHV-12(2be), TEM-OSBL(2b); CTX-M-15; NDM-7)): Z (MIC of greater than 10 μg/mL); MIC (strain KP1180 Klebsiella pneumoniae (SHV-OSBL(2b), TEM-OSBL(2b); CTX-M-15; DHA-1; IMP-26)): Y (MIC of 1 μg/mL to 10 μg/mL); MIC (strain KP1181 Klebsiella pneumoniae (SHV-OSBL(2b); CTX-M-15; IMP-26)): Y (MIC of 1 μg/mL to 10 μg/mL); MIC (strain KP1183 Klebsiella pneumoniae (SHV-OSBL(2b), TEM-OSBL(2b); CTX-M-15; NDM-1)): Z (MIC of greater than 10 μg/mL); MIC (strain KP1184 Klebsiella pneumoniae (SHV-OSBL(2b); IMP-1)): Y (MIC of 1 μg/mL to 10 μg/mL); MIC (strain KP1185 Klebsiella pneumoniae (SHV-OSBL(2b), TEM-OSBL(2b); IMP-4)): Z (MIC of greater than 10 μg/mL); MIC (strain KP1186 Klebsiella pneumoniae (CTX-M-15; NDM-1)): Z (MIC of greater than 10 μg/mL); MIC (strain KP1187 Klebsiella pneumoniae (SHV-55(2be), TEM-OSBL(2b); CTX-M-15; NDM-1)): Z (MIC of greater than 10 μg/mL); MIC (strain KP1188 Klebsiella pneumoniae (SHV-OSBL(2b); CTX-M-15; NDM-1)): Z (MIC of greater than 10 μg/mL); MIC (strain KP1189 Klebsiella pneumoniae (TEM-OSBL(2b); CTX-M-15; CTX-M-27; NDM-1)): Z (MIC of greater than 10 μg/mL); MIC (strain KPM1123 Klebsiella pneumoniae (KPC-2 TEM SHV)): Z (MIC of greater than 10 μg/mL); MIC (strain KPM1202 Klebsiella pneumoniae (KPC SHV TEM)): Z (MIC of greater than 10 μg/mL); MIC (strain KPM1203 Klebsiella pneumoniae (KPC SHV TEM)): Y (MIC of 1 μg/mL to 10 μg/mL); MIC (strain KPM1344 Klebsiella pneumoniae (VIM-1)): Y (MIC of 1 μg/mL to 10 μg/mL); MIC (strain KPM1345 Klebsiella pneumoniae (VIM-1 SHV)): Y (MIC of 1 μg/mL to 10 μg/mL); MIC (strain KPM1347 Klebsiella pneumoniae (NDM-1 SHV CTX-M-15)): Z (MIC of greater than 10 μg/mL); MIC (strain KX1017 Klebsiella oxytoca (KPC-2, OXA-2, SHV-30)): Z (MIC of greater than 10 μg/mL); MIC (strain KX1018 Klebsiella oxytoca (KPC-2, SHV-40, OXY-1)): Y (MIC of 1 μg/mL to 10 μg/mL); MIC (strain KX1019 Klebsiella oxytoca (KPC-2, OXA-2)): Z (MIC of greater than 10 μg/mL); MIC (strain PM1024 Proteus mirabilis (TEM-1(2b); CMY-16; VIM-1)): Y (MIC of 1 μg/mL to 10 μg/mL); MIC (strain PM1026 Proteus mirabilis (DHA-1; IMP-26)): Y (MIC of 1 μg/mL to 10 μg/mL); MIC (strain PM1027 Proteus mirabilis (VIM-5)): Z (MIC of greater than 10 μg/mL); MIC (strain SM1023 Serratia marcescens (VIM-4)): Z (MIC of greater than 10 μg/mL)
